Reference: US12576155B2, “Senolytic and antiinflammatory prodrugs and methods of use thereof” (priority 2019, dated 2026)

Experiments:
[1] = tested on: naturally occurring senescent cells of aged mice; assay: SSK1 treatment of naturally aged mice (senescent cells, SASP, physical function, RNA-seq); type: in vivo, C57BL/6 mice
Description: All drugs were mixed in 90% PBS, 5% Tween-80 (P1754, Sigma), and 5% polyethylene glycol (PEG) (81172, Sigma) and administered to mice by intraperitoneal (i.p.) injection. For treating bleomycin-injured young mice, SSK1 (0.5 mg/kg) or vehicle were given consecutive two days every week for five weeks. For old mice (20-month-old), SSK1 (0.5 mg/kg), gemcitabine (0.5 mg/kg) or vehicle were administrated for continued 3 days every two weeks. Gemcitabine was purchased from MCE.
Cultured cells were washed once with PBS and fixed in β-galactosidase staining fix solution for 15 min at room temperature. Cells were then washed three times with PBS and incubated with β-galactosidase staining solution (Beyotime Biotechnology) for 16-20 hours at 37° C. For 12-well plates, 1 ml of β-galactosidase staining solution was added to each well. The plate was sealed with Parafilm to prevent evaporation of the staining medium. After the overnight incubation, cells were washed with PBS and observed under a bright field microscope. For β-galactosidase staining of frozen sections, the frozen sections were dried at 37° C. for 20-30 min and then fixed in β-galactosidase staining fix solution for 15 min at room temperature. The frozen sections were washed three times with PBS and incubated with β-galactosidase staining solution overnight at 37° C. After completion of β-galactosidase staining, the sections were stained with eosin for 1-2 min, rinsed under running water for 1 min, differentiated in 1% acid alcohol for 10-20 sec, and washed again under running water for 1 min. Sections were dehydrated in increasing concentrations of alcohols and cleared in xylene. Excess xylene was drained and a coverslip was placed over the section. After drying, the sample was observed under a microscope.
Lung, liver, and kidney frozen sections stained with SA-β-Gal were quantified by ImageJ software (NIH) to measure the SA-β-Gal positive area. The total area was quantified by eosin positive area with ImageJ software (NIH). The relative positive SA-β-Gal positive cells were calculated with the SA-β-Gal positive area divided by the total area. Each mouse was measured with 3-5 regions.
Mouse liver tissues were fixed in 4% paraformaldehyde (DingGuo, AR-0211) for 24 h at room temperature and dehydrated with graded sucrose solution (20% and 30% respectively 24 h) before embedded in OCT compound (Sakura) for cryosection. The embedded tissues were cut and affixed on slides. Before immunohistochemical staining, the sections were fixed in 4% paraformaldehyde (DingGuo, AR-0211) at room temperature for 15 min and blocked with PBS containing 0.25% Triton X-100 (Sigma-Aldrich, T8787) and 2% normal donkey serum (Jackson ImmunoResearch Laboratories, 017-000-121) at room temperature for 1 h. Samples for immunofluorescence staining were incubated with primary antibody: anti-F4/80 antibody (Abcam, ab6640) at 4° C. overnight, washed three times with PBS and then incubated with appropriate secondary antibodies: Alexa Fluor® 488 AffiniPure Donkey Anti-Rat IgG (H+L) (Jackson ImmunoResearch Laboratories, 712-545-150) for 1.5 h at 37° C. Nuclei were stained with Hoechst 33342 (Sigma-Aldrich, B2261).
For quantification of F4/80 positive cells, images were randomly taken at 20× magnification at the same exposure using confocal laser endomicroscopy (LSM 710 NLO &DuoScan System) and then analyzed by ImageJ. Each mouse was measured with at least 6-10 regions.
Total RNA was isolated using the Direct-zol RNA MiniPrep Kit (Zymo Research, R2072). RNA was treated with DNase and converted to cDNA using TransScript First-Strand cDNA Synthesis SuperMix (TransGen Biotech, AT311-03). qPCR was performed using Kapa SYBR® FAST qPCR Kit Master Mix (Kapa Biosystems, KM4101) on a CFX Connect™ Real-Time System or CFX96™ Real-Time System (Bio-Rad). Data were analyzed using the 2^(−ΔΔCt) method. Gapdh was used as a control to normalize the expression of target genes. […]

[2] = tested on: primary mouse fibroblasts and their replication-induced senescent counterparts; assay: Cell viability testing, senescent vs non-senescent primary mouse fibroblasts; type: cell-based; conditions: increasing doses; senescent vs non-senescent cells
Description: Mouse embryonic fibroblasts (MEFs) were isolated from E13.5 embryos as described previously (Zhao et al., Cell Stem Cell 23, 31-45 e37([…])). Newborn mouse skin fibroblasts (NBFs) were isolated from the skin of day 1-3 newborn mice. Adult mouse lung fibroblasts were isolated from 2-month-old and 23-month-old mice. Briefly, mouse embryonic tissues, skin and lung were obtained from described donor mice. Then, these tissues were minced with forceps and incubated in 2 mg/ml collagenase IV (Gibco) for 2-4 hours at 37° C. After enzyme treatment, cells were collected by centrifugation and resuspended in high-glucose DMEM (Gibco) supplemented with 10% fetal bovine serum (FBS) and 1% penicillin-streptomycin (Gibco). The three types of mouse primary cells were all cultured in a humidified incubator at 37° C. and 5% CO2.
To avoid replication-induced senescent cells, low-passage proliferative NBFs (<3 passages), MEFs (<3 passages), mouse lung fibroblasts (<3 passages), HEFs (<10 passages), and HUVECs (<6 passages) were used as normal controls. To induce cell quiescence, MEFs were cultured in DMEM without FBS for 2 days.
For replication-induced senescence, cells were passaged until they lost the ability to proliferate and became senescent. NBFs were used as senescent cells after approximately 8-9 passages or 12 population doublings. HEFs were used after approximately 35 passages or 50 population doublings. HUVECs were senescent after approximately 18 passages or 24 population doublings.
To test the viability of senescent and non-senescent cells treated with SSK1, cells were stained with a mixture of Hoechst 33342 and propidium iodide (PI) (CA1120, Solarbio) to distinguish living and dead cells. After treatment with the small molecules, the cell culture medium was removed, and the cells were washed once with PBS. […] The plate was incubated at 4° C. for 30 min and observed on a fluorescence microscope or automatic cell imaging system. Viable cells were quantified using a MD Image Xpress Micro XL (Molecular Devices).

[3] = 20-month-old mice, SSK1 0.5 mg/kg i.p. intermittently for 8 weeks
[4] = aged mice, SSK1 0.5 mg/kg vs vehicle
[5] = old female mice, 8 weeks, vs vehicle

## CC(=O)OCC1O[C@@H](Oc2ccc(COC(=O)Nc3ccn([C@@H]4O[C@H](CO)C(O)C4(F)F)c(=O)n3)cc2[N+](=O)[O-])C(OC(C)=O)C(OC(C)=O)[C@H]1OC(C)=O (stereo partly shown) [SSK1]
[1]; [3]
  Elimination of β-gal-positive senescent cells vs vehicle, kidney: 3.5 fold
  Elimination of β-gal-positive senescent cells vs vehicle, liver: 5.9 fold
  Elimination of β-gal-positive senescent cells vs vehicle, lung: 2 fold
[1]; aged livers vs vehicle
  GO pathways related to liver function (oxidation-reduction process, metabolic process, fatty acid beta-oxidation, mitochondrion): up-regulated
[1]; aged mice livers and kidneys vs vehicle
  Genes associated with inflammatory response, TNFα signaling via NF-κB, IL6 JAK Stat3 signaling and complement (GSEA): down regulated
[1]; aged mice vs vehicle
  Age-associated signature (GSEA) in aged livers and kidneys: decreased
  Expression of senescent markers p16 (in liver) and p21 (in liver and kidney), RT-qPCR: decreased expression
  Inflammatory factors IL1α and IL1β in aged liver and IL6 in aged kidneys, RT-qPCR: decreased
[1]; aged mice, SSK1 0.5 mg/kg
  F4/80 positive macrophages infiltration in livers (immunofluorescence): could delete macrophages infiltration
[1]; [4]
  Gene signature associated with senescence (GSEA), livers and kidneys: downregulate
  Secretion of SASP factors IL1α, IL6, CXCL1 and TNFα in serum (ELISA): decreased secretion
[1]; aged mice, FIG. 4J
  Rotarod, treadmill, and grip strength functions vs other senolytic drugs (fisetin, 17-DMAG, ABT263, dasatinib and quercetin): improved the rotarod, treadmill, and grip strength functions when compared to the other senolytic compounds
[1]; old female mice, 8 weeks
  Body weight: without significant effect on body weight
[1]; [5]
  Balance beam crossing time: decreased
  Grip strength: significantly increased
  Maximal rotarod time: significantly increased
  Rearing exploration times: significantly increased
  Treadmill distance: significantly increased
[1]; old male mice, SSK1 0.5 mg/kg vs vehicle
  Rotarod, treadmill, and grip strength performance: same results were also observed
[1]; old mice vs vehicle
  Liver fibrosis (Masson fibrosis staining): attenuate liver fibrosis
[1]; old mice, SSK1 0.5 mg/kg
  Rotarod and treadmill performance after vs before treatment: improved over the initial state before treatment
[2]
  Selective killing of senescent cells (viable cells): selectively and potently eliminated SA-β-gal-positive senescent cells over non-senescent cells with a wide therapeutic window
